Measured values: article PMC5481357, “Characterization of Three L-Asparaginases from Maritime Pine (Pinus pinaster Ait.)” (Frontiers in Plant Science, 2017)

Key:
Assay in all cases: GOT/MDH-coupled aspartate release, NADH oxidation; Hanes-Woolf
Format in all cases: biochemical, Pinus pinaster
Conditions in all cases: 50 mM HEPES pH 7.8, 50 mM KCl
[1] = system: T1, PpASPG3
T1 construct: full ORF (918 nt, 305 residues) with C-terminal HA and poly-His tag, expressed in Nicotiana benthamiana, Ni-TED purified; partly processed into alpha and beta subunits

[2] = system: T2, PpASPG1
T2 construct: full ORF (1128 nt, 375 residues incl. 77-residue variable loop), expressed in Nicotiana benthamiana; conventional purification, untagged by the measured beta mass; autocleaved before Thr245 into alpha (26,431 Da, Met1 removed) and beta (13,325 Da); plant ASPG (alpha beta)2
Excerpt: GOT/MDH-coupled aspartate release, NADH oxidation; Hanes-Woolf on […]1 | changes in the Km and Vmax values for L-Asn and β-L-Asp-L-Ala (Supplementary Table S3)

[3] = system: T2, PpASPG1; remark: listed apart in the source

| Km [1] | Km ([2]; deletion variant with C-terminal HA and poly-His tag, partly unprocessed precursor) | Km [3] | Km [2] | Structure (SMILES) |
| --- | --- | --- | --- | --- |
| 6.12 ± 0.96 mM | 7.16 ± 0.88 mM | 4.58 ± 0.03 mM | – | NC(=O)C[C@H](N)C(=O)O [L-Asn] |
| 1.04 ± 0.21 mM | – | 56.7 ± 13.9 mM | 9.44 ± 0.82 mM | C[C@H](NC(=O)C[C@H](N)C(=O)O)C(=O)O [β-L-Asp-L-Ala] |
